Measurements: patent US20120178786A9, “Use of tetramic acid derivatives for controlling pests by drenching, drip application, or dip application” (priority 2006, published 2012)

System: Coccus viridis
Test: Example 11: drench of gardenia plants, Henderson-Tilton efficacy against nymphs
Format: in vivo
Settings: 48 mg active substance/1 potting compost, 20 G
Description: Gardenia plants cv. […] The greenhouse temperature is 27° C. The test is evaluated 7, 15, 21 and 35 days after the treatment by determining the activity against nymphs on the leaves with the aid of the Henderson-Tilton method.

Structure (SMILES): CN/C(=N/CC1CCOC1)N[N+](=O)[O-] (stereo not shown) [Dinotefuran, dinotefuran]
- Henderson-Tilton efficacy (%) against Coccus viridis (7 d after treatment): 0%
- Henderson-Tilton efficacy (%) against Coccus viridis (15 d after treatment): 57%
- Henderson-Tilton efficacy (%) against Coccus viridis (21 d after treatment): 85%
- Henderson-Tilton efficacy (%) against Coccus viridis (35 d after treatment): 91%
